According to US20140322761A1, “METHOD OF PREPARING SAMPLE FOR NUCLEIC ACID AMPLIFICATION REACTION, NUCLEIC ACID AMPLIFICATION METHOD, AND REAGENT AND MICROCHIP FOR SOLID PHASE NUCLEIC ACID AMPLIFICATION REACTION” (Sony Corporation, priority 2013, published 2014):

Tests used:
[1] = tested on: nucleic acid amplification reaction (genome of Bifidobacterium bifidum as template); assay: LAMP reaction with SDS and HPβCD, bacterial genome as template (Example 6); assay type: biochemical
Procedure: In Example 6, nucleic acid amplification reaction was performed using the LAMP method using a genome of Bifidobacterium bifidum as a template nucleic acid. In addition, a sample for nucleic acid amplification reaction, a primer, and a quenching probe used for the nucleic acid amplification reaction were the same as those in Example 5. HPβCD was prepared such that a final concentration of HPβCD in a nucleic acid amplification reaction solution becomes 2.5%. Furthermore, SDS was added thereto such that the SDS concentrations become 0%, 0.05%, 0.1%, 0.2%, 0.3%, 0.4%, 0.5%, and 1.0% to be set as Test Examples 1 to 8 respectively. In addition, HPβCD was prepared such that a final concentration of HPβCD in a nucleic acid amplification reaction solution becomes 5.0%. Furthermore, SDS was added thereto such that the SDS concentrations become 0%, 0.05%, 0.1%, 0.2%, 0.3%, 0.4%, 0.5%, and 1.0% to be set as Test Examples 9 to 16 respectively. In addition, nucleic acid amplification reaction solutions prepared such that the HPβCD concentration becomes 0% and the SDS concentrations become 0%, 0.01%, and 0.1% to be set as Comparative Examples 1 to 3.

RNase A = biological target: T1, RNase A (Bos taurus, UniProt P61823); assay: RNase A activity, RNase Alert QC test Kit (Example 3); assay type: biochemical; conditions: RNase A 0.003 U/mL, 37° C., 60 minutes, compared to Comparative Example 2 without SDS
T1 sequence (P61823 27-150): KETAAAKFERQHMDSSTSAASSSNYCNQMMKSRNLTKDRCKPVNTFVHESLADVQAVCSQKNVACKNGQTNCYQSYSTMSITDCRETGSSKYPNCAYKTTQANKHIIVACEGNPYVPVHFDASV
Procedure: RNase Alert QC test Kit (Ambion) was used for measuring the activity of the RNase A. The RNase A was added to the solution containing RNaseAlert substrate with a final concentration of 0.003 U/mL. The SDS was added to the RNase A solution with a final concentration of 0.1% or 1.0% each to be set as Test Example 1 and Test Example 2. […] Test Examples 1 and 2 and Comparative Examples 1 and 2 were kept warm for 60 minutes at a temperature of 37° C. A fluorescent material (FAM) is bonded with a quencher in the RNaseAlert substrate. The fluorescent material emits when the fluorescent material is separated from the quencher using the RNase A. Excitation light and luminescence of the fluorescence was measured to be 490 nm and 520 nm respectively, using Chromo4 (Bio-rad).

Bifidobacterium bifidum = assay: Nucleic acid extraction from bacteria by heat treatment with SDS, followed by LAMP (Example 5); conditions: HPβCD 5% (w/v), LAMP 63° C.
Procedure: In Example 5, Bifidobacterium bifidum from which it is comparatively difficult to extract the nucleic acid was used as bacteria. The Bifidobacterium bifidum (NBRC number: 100015) was obtained from Biological Resource Center (NBRC) of National In statute of Technology and Evaluation (NITE). In addition, the nucleic acid amplification reaction of a genome of Bifidobacterium bifidum was performed using the LAMP method and an LAMP reaction reagent (Eiken Chemical Co., Ltd, Loopamp® DNA Amplification reagent Kit) was used as a sample for the nucleic acid amplification reaction.
A quenching probe shown in Table 3 was used for detecting an amplification nucleic acid chain. In Example 5, excitation light and luminescence of light derived from a fluorescent material FAM bonded with the quenching probe was measured to be 490 nm and 520 nm respectively, using Chromo4 (Bio-rad).
A cell suspension in which the Bifidobacterium bifidum is prepared to be 100 copies/ml. In Example 5, as Test Examples 3 to 5, SDS was added to the cell suspension at the time of heat treatment such that concentrations of SDS become 0.01%, 0.1%, and 1%, respectively (refer to Table 4). In addition, as Test Examples 1 and 2 and Comparative Example 1, cell suspensions to which SDS was not added was prepared (refer to Table 4). The heat treatment was performed for 3 minutes at a temperature of 90° C. for Test Examples 1 and 3 to 5 before starting the nucleic acid amplification reaction. In addition, sonication was performed for Test Example 2 before starting the nucleic acid amplification reaction. After the heating process or the sonication, a LAMP reaction reagent and a primer and quenching probe of Table 3 were added to Test Examples 1 to 5. Furthermore, hydroxyprophyl-β-cyclodextrin (Tokyo Chemical Industry Co., Ltd.) was added to Test Examples 1 to 5 such that a final concentration of the hydroxyprophyl-β-cyclodextrin becomes 5% (w/v). A sample for nucleic acid amplification reaction, a primer, a quenching probe, and HPβCD were added to Comparative Example 1 as well. […]

[2] = tested on: RNase A contained in plasma; assay: Activity of RNase A contained in diluted bovine plasma, RNase Alert QC test Kit (Example 4); assay type: biochemical; conditions: 37° C., 60 minutes
Procedure: In Example 4, bovine plasma was used as an organism derived sample. The bovine plasma was used after being diluted 10 times or 20 times in advance. Similarly to Example 3, RNase Alert QC test Kit (Ambion) was used for measuring the activity of the RNase A. RNaseAlert substrate and SDS were added to the 10 times diluted bovine plasma such that final concentrations of the SDS become 0.05%, 0.1%, 0.2%, 0.3%, 0.4%, and 0.5% respectively to be set as Test Examples 1 to 6. In addition, RNaseAlert substrate and SDS were added to the 20 times diluted bovine plasma such that final concentrations of the SDS become 0.05%, 0.1%, 0.2%, 0.3%, 0.4%, and 0.5% respectively to be set as Test Examples 7 to 12. In addition, 10 times diluted bovine plasma to which SDS is not added was set as Comparative Example 1 and 20 times diluted bovine plasma to which SDS is not added was set as Comparative Example 2. Test Examples 1 to 12 and Comparative Examples 1 and 2 were kept warm for 60 minutes at a temperature of 37° C. and the activity of the RNase A was measured during the time period using the same method as in Example 3.

| Compound | SDS concentration at which amplification of the nucleic acid was confirmed ([1]; HPβCD not added) [%] | amplification of the nucleic acid ([1]; HPβCD not added, SDS concentration 0.1%) | activity of the RNase A (RNase A; SDS 0.1% (Test Example 1)) | activity of the RNase A (RNase A; SDS 1.0% (Test Example 2)) | Tt value (Bifidobacterium bifidum; SDS 0.01% at heat treatment, 3 minutes at 90° C. (Test Example 3)) [min] | Tt value (Bifidobacterium bifidum; SDS 0.1% at heat treatment, 3 minutes at 90° C. (Test Example 4)) [min] | amplification of the nucleic acid (Bifidobacterium bifidum; SDS 1% at heat treatment, 3 minutes at 90° C. (Test Example 5)) | SDS concentration with which the activity of the RNase A was suppressed ([2]; bovine plasma diluted 10 times (Test Examples 5 and 6)) [%] | SDS concentration with which the activity of the RNase A was suppressed ([2]; bovine plasma diluted 20 times (Test Examples 9 to 12)) [%] | HPβCD concentration relative to the SDS concentration to suppress the inhibition of the LAMP reaction due to the SDS ([1]; in the nucleic acid amplification reaction solution) [times] |
| --- | --- | --- | --- | --- | --- | --- | --- | --- | --- | --- |
| CCCCCCCCCCCCOS(=O)(=O)[O-].[Na+] [SDS, sodium dodecyl sulfate] | ≤ 0.01 | No amplification of the nucleic acid was confirmed | suppressed | suppressed | 17.5 | 14.2 | no amplification of the nucleic acid | ≥ 0.4 | ≥ 0.2 | – |
| hydroxyprophyl-β-cyclodextrin [HPβCD] | – | – | – | – | – | – | – | – | – | ≥ 8 |
